In patent publication US10392391B2 (Vertex Pharmaceuticals Incorporated, priority 2012, dated 2019):
Read-outs that look alike come from different tables or passages of the source.

Target: ATR kinase (full-length ATR) (Homo sapiens (Human), UniProt Q13535)
Assay: ATR inhibition assay (radioactive-phosphate incorporation)
Assay type: biochemical
Method in brief: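 Radiometric 33P incorporation by 5 nM full-length ATR into 800 μM target peptide with 10 μM [γ-33P]ATP, in 50 mM Tris/HCl pH 7.5, 10 mM MgCl2, 1 mM DTT, 7% DMSO, 25° C. Compound pre-incubated 10 minutes; reaction stopped after 24 hours, captured on phosphocellulose. Ki(app) from non-linear regression of initial rates.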

[1] = Ki(app), 5 nM full-length ATR, 10 μM ATP, 25° C.

ATR kinase (full-length ATR), sequence (Q13535 whole entry): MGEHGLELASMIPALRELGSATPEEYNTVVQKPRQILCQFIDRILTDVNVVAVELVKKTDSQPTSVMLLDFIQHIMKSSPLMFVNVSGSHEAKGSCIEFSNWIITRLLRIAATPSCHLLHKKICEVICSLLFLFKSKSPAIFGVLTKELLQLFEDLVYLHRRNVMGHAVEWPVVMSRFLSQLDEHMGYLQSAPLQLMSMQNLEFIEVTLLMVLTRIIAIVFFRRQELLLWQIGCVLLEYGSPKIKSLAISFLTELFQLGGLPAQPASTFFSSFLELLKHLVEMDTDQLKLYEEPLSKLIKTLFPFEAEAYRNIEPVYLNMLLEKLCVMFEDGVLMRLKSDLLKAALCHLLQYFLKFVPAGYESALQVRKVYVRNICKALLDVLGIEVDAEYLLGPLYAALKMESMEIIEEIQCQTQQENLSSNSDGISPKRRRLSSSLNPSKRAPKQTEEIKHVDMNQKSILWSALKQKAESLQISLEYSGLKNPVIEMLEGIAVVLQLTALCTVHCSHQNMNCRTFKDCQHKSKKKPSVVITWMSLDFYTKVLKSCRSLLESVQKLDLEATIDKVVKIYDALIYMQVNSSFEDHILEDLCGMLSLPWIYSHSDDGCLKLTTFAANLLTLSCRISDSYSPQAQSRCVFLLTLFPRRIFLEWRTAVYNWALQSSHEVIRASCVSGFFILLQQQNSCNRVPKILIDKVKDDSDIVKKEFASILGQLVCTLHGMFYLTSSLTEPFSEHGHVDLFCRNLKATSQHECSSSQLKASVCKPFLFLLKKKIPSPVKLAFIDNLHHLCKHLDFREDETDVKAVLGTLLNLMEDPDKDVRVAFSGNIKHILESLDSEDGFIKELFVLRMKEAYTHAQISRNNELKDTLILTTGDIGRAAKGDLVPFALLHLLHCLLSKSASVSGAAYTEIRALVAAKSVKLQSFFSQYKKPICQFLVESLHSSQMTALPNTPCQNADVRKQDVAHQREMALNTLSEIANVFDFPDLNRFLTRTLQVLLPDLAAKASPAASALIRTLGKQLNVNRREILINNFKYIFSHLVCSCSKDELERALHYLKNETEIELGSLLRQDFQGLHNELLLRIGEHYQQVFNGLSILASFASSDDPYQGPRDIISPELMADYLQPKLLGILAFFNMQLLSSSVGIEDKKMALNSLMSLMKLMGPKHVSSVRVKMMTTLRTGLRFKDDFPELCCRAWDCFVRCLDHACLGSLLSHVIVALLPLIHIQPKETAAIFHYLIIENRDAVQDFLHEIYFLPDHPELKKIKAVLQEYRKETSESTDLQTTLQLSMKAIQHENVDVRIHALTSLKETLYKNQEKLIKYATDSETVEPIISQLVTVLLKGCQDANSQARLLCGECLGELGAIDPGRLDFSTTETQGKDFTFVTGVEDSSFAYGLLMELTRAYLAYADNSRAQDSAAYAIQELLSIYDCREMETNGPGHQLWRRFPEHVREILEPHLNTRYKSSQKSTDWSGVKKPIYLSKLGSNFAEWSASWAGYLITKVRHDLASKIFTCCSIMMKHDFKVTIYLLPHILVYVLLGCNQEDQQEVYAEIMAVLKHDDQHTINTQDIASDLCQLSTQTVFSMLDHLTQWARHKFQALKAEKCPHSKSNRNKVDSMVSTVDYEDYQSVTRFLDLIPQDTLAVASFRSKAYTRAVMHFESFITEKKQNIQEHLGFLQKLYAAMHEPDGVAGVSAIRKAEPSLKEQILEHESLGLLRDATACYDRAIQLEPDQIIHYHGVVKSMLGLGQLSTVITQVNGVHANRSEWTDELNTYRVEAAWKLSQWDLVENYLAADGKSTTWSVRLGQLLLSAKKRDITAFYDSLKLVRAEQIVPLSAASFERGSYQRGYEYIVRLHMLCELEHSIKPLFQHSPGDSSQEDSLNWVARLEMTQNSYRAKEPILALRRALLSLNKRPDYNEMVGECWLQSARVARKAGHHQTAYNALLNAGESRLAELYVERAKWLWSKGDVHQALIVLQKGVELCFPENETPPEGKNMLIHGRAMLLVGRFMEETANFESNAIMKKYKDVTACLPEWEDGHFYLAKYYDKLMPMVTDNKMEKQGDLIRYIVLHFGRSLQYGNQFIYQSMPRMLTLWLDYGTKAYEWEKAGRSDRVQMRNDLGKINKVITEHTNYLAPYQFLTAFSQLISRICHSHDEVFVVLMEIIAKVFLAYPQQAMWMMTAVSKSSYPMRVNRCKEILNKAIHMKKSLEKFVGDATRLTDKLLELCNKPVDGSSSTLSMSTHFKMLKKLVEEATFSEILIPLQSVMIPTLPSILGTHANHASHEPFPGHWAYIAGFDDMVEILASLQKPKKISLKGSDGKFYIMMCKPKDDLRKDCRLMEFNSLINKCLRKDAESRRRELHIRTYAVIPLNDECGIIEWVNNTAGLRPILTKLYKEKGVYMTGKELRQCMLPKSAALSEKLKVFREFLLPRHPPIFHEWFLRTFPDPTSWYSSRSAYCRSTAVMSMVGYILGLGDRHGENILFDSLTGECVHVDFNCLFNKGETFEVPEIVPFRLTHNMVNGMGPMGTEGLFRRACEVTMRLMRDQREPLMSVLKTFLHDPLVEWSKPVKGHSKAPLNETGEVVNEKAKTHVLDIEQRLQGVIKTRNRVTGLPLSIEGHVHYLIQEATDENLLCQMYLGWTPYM

Row | SMILES | Ki [1] [µM] | Ki [µM]
1 | Nc1nn2cc(F)cnc2c1C(=O)Nc1cnccc1N1CCC(S(=O)(=O)C2COC2)CC1 [I-N-200, 2-amino-6-fluoro-N-(4-(4-(oxetan-3-ylsulfonyl)piperidin-1-yl)pyridin-3-yl)pyrazolo[1,5-a]pyrimidine-3-carboxamide] | 0.01 to 1 | 
2 | N#CCc1cnc2c(C(=O)Nc3cnccc3N3CCCC3)c(N)nn2c1 [I-N-77, 2-amino-6-(cyanomethyl)-N-(4-(pyrrolidin-1-yl)pyridin-3-yl)pyrazolo[1,5-a]pyrimidine-3-carboxamide] | 0.01 to 1 | 
3 | CN1CC2(CCN(c3ccncc3NC(=O)c3c(N)nn4cc(F)cnc34)CC2)OC1=O [I-N-216, 2-amino-6-fluoro-N-(4-(3-methyl-2-oxo-1-oxa-3,8-diazaspiro[4.5]decan-8-yl)pyridin-3-yl)pyrazolo[1,5-a]pyrimidine-3-carboxamide] | 0.01 to 1 | 
4 | Nc1nn2cc(F)cnc2c1C(=O)Nc1cncc(F)c1N1CCN2C(=O)OC[C@@H]2C1 [I-N-248, (S)-2-amino-6-fluoro-N-(5-fluoro-4-(3-oxotetrahydro-1H-oxazolo[3,4-a]pyrazin-7(3H)-yl)pyridin-3-yl)pyrazolo[1,5-a]pyrimidine-3-carboxamide] | 0.01 to 1 | 
5 | Nc1nn2cc(F)cnc2c1C(=O)Nc1cncc(Cl)c1N1CCCC1 [I-N-281, 2-amino-N-(5-chloro-4-(pyrrolidin-1-yl)pyridin-3-yl)-6-fluoropyrazolo[1,5-a]pyrimidine-3-carboxamide] | 0.01 to 1 | 
6 | Nc1nn2cc(F)cnc2c1C(=O)Nc1cnccc1N1CCC(CN2CCC(F)(F)C2)CC1 [I-N-197, 2-amino-N-(4-(4-((3,3-difluoropyrrolidin-1-yl)methyl)piperidin-1-yl)pyridin-3-yl)-6-fluoropyrazolo[1,5-a]pyrimidine-3-carboxamide] | 0.01 to 1 | 
7 | CN1CCN(c2ccncc2NC(=O)c2c(N)nn3cc(C(C)(C)C#N)cnc23)CC1 [I-N-76, 2-amino-6-(2-cyanopropan-2-yl)-N-(4-(4-methylpiperazin-1-yl)pyridin-3-yl)pyrazolo[1,5-a]pyrimidine-3-carboxamide] |  | 1 to 5
8 | Cc1cncc(NC(=O)c2c(N)nn3cc(F)cnc23)c1N1CCN(C2COC2)CC1 [I-N-16, 2-amino-6-fluoro-N-(5-methyl-4-(4-(oxetan-3-yl)piperazin-1-yl)pyridin-3-yl)pyrazolo[1,5-a]pyrimidine-3-carboxamide] | 0.01 to 1 | 
9 | CN1CCN(c2c(Cl)cncc2NC(=O)c2c(N)nn3cc(F)cnc23)CC1 [I-N-85, 2-amino-N-(5-chloro-4-(4-methylpiperazin-1-yl)pyridin-3-yl)-6-fluoropyrazolo[1,5-a]pyrimidine-3-carboxamide] | 0.01 to 1 | 
10 | N#CCc1cnc2c(C(=O)Nc3cnccc3OC3CNC3)c(N)nn2c1 [I-O-82, 2-amino-N-(4-(azetidin-3-yloxy)pyridin-3-yl)-6-(cyanomethyl)pyrazolo[1,5-a]pyrimidine-3-carboxamide] | < 0.01 | 
11 | CN1CCN(c2c(F)cncc2NC(=O)c2c(N)nn3cc(Cl)cnc23)CC1 [I-N-14, 2-amino-6-chloro-N-(5-fluoro-4-(4-methylpiperazin-1-yl)pyridin-3-yl)pyrazolo[1,5-a]pyrimidine-3-carboxamide] | 0.01 to 1 | 
12 | Nc1nn2cc(F)cnc2c1C(=O)Nc1cnccc1-n1ccnc1 [I-N-7, N-(4-(1H-imidazol-1-yl)pyridin-3-yl)-2-amino-6-fluoropyrazolo[1,5-a]pyrimidine-3-carboxamide] | 0.01 to 1 | 
13 | Nc1nn2cc(F)cnc2c1C(=O)Nc1cnccc1C1CCN(C(=O)C23CCN(CC2)CC3)CC1 [I-C-18, 2-amino-6-fluoro-N-(4-(1-(quinuclidine-4-carbonyl)piperidin-4-yl)pyridin-3-yl)pyrazolo[1,5-a]pyrimidine-3-carboxamide] | 0.01 to 1 | 
14 | Nc1nn2cc(F)cnc2c1C(=O)Nc1cnccc1N1CCC(S(=O)(=O)N2CCN3CCC2CC3)CC1 [I-N-196, N-(4-(4-(1,4-diazabicyclo[3.2.2]nonan-4-ylsulfonyl)piperidin-1-yl)pyridin-3-yl)-2-amino-6-fluoropyrazolo[1,5-a]pyrimidine-3-carboxamide] | 0.01 to 1 | 
15 | CN1CCC[C@@H]1C(=O)N1CCN(c2ccncc2NC(=O)c2c(N)nn3cc(F)cnc23)CC1 [I-N-199, (R)-2-amino-6-fluoro-N-(4-(4-(1-methylpyrrolidine-2-carbonyl)piperazin-1-yl)pyridin-3-yl)pyrazolo[1,5-a]pyrimidine-3-carboxamide] | 0.01 to 1 | 
16 | Cn1nncc1-c1ccncc1NC(=O)c1c(N)nn2cc(F)cnc12 [I-C-72, 2-amino-6-fluoro-N-(4-(1-methyl-1H-1,2,3-triazol-5-yl)pyridin-3-yl)pyrazolo[1,5-a]pyrimidine-3-carboxamide] | 0.01 to 1 | 
17 | CN1CCC(S(=O)(=O)N2CCN(c3ccncc3NC(=O)c3c(N)nn4cc(F)cnc34)CC2)CC1 [I-N-188, 2-amino-6-fluoro-N-(4-(4-((1-methylpiperidin-4-yl)sulfonyl)piperazin-1-yl)pyridin-3-yl)pyrazolo[1,5-a]pyrimidine-3-carboxamide] | 0.01 to 1 | 
18 | Nc1nn2cc(Cl)cnc2c1C(=O)Nc1cnccc1OC1CN2CCC1CC2 (centres unmarked) [I-O-62, 2-amino-6-chloro-N-(4-(quinuclidin-3-yloxy)pyridin-3-yl)pyrazolo[1,5-a]pyrimidine-3-carboxamide] | 0.01 to 1 | 
19 | COC1(CN(C)C)CCN(c2ccncc2NC(=O)c2c(N)nn3cc(Cl)cnc23)CC1 [I-N-46, 2-amino-6-chloro-N-(4-(4-((dimethylamino)methyl)-4-methoxypiperidin-1-yl)pyridin-3-yl)pyrazolo[1,5-a]pyrimidine-3-carboxamide] | 0.01 to 1 | 
20 | CN(C)S(=O)(=O)C1CCN(c2c(F)cncc2NC(=O)c2c(N)nn3cc(F)cnc23)CC1 [I-N-146, 2-amino-N-(4-(4-(N,N-dimethylsulfamoyl)piperidin-1-yl)-5-fluoropyridin-3-yl)-6-fluoropyrazolo[1,5-a]pyrimidine-3-carboxamide] | 0.01 to 1 | 
21 | CC1(O)CCN(c2ccncc2NC(=O)c2c(N)nn3cc(Cl)cnc23)CC1 [I-N-66, 2-amino-6-chloro-N-(4-(4-hydroxy-4-methylpiperidin-1-yl)pyridin-3-yl)pyrazolo[1,5-a]pyrimidine-3-carboxamide] | 0.01 to 1 | 
22 | Nc1nn2cc(Cl)cnc2c1C(=O)Nc1cnccc1N1CCC(N2CCOCC2)CC1 [I-N-104, 2-amino-6-chloro-N-(4-(4-morpholinopiperidin-1-yl)pyridin-3-yl)pyrazolo[1,5-a]pyrimidine-3-carboxamide] | 0.01 to 1 | 
23 | CN1CCC(c2ccncc2NC(=O)c2c(N)nn3cc(C(C)(C)C#N)cnc23)CC1 [I-C-23, 2-amino-6-(2-cyanopropan-2-yl)-N-(4-(1-methylpiperidin-4-yl)pyridin-3-yl)pyrazolo[1,5-a]pyrimidine-3-carboxamide] |  | 1 to 5
24 | Nc1nn2cc(Cl)cnc2c1C(=O)Nc1cnccc1OC1CCCOC1 (centres unmarked) [I-O-65, 2-amino-6-chloro-N-(4-((tetrahydro-2H-pyran-3-yl)oxy)pyridin-3-yl)pyrazolo[1,5-a]pyrimidine-3-carboxamide] | 0.01 to 1 | 
25 | N#CCc1cnc2c(C(=O)Nc3cnccc3N3CCC(O)CC3)c(N)nn2c1 [I-N-83, 2-amino-6-(cyanomethyl)-N-(4-(4-hydroxypiperidin-1-yl)pyridin-3-yl)pyrazolo[1,5-a]pyrimidine-3-carboxamide] | < 0.01 | 
26 | CC(C)Oc1ccncc1NC(=O)c1c(N)nn2cc(CC#N)cnc12 [I-O-35, 2-amino-6-(cyanomethyl)-N-(4-isopropoxypyridin-3-yl)pyrazolo[1,5-a]pyrimidine-3-carboxamide] | < 0.01 | 
